{"source": "PubChem BioAssay AID2060889", "about": "(Molecular Pharmacology Branch, DTP, NCI, 2025)", "system": "LG0567-F671-PDC complex spheroids viability", "test": "Anticancer human tumor LG0567-F671-PDC patient-derived lung adenocarcinoma cell line growth inhibition [RAS]", "settings": "for viability, T/C: stronger effect = lower value", "from_the_text": "RAS pathway inhibitors in Combinations in Complex Spheroids\nA high-throughput screen of multi-cell type tumor spheroids was designed to identify active combinations of RAS pathway inhibitors and targeted small molecules. Complex spheroids include a stromal component modeled by human endothelial cells (HUVEC) and fibroblasts modeled by human mesenchymal stem cells (MSCs). The concentration ranges selected for each drug and investigational agent were based upon clinically achievable concentrations if the clinical Cmax of the agent was known.\nCompounds. The drugs and investigational agents: abemaciclib (NSC768073), cobimetinib (NSC768068), divarasib (GDC6063, NSC841802), docetaxel (NSC628503), GDC-1971 (RLY-1971, NSC841576), gemcitabine (NSC613327), inavolisib (NSC800729), ipatasertib (NSC767898), KB-0742 (NSC834161), MRTX-1133 (NSC836407), osimertinib (NSC779217), RMC-4630 (NSC839698), RMC-6236 (NSC851965), RMC-6291 (NSC852671), Ro-3306 (NSC812927), sapanisertib (NSC764658), SN-38 (NSC673596), staurosporine (NSC755774), SY5609 (NSC837396), and tovorafenib (DAY101, NSC766906), were obtained from the National Cancer Institute (NCI) Developmental Therapeutics Program Chemical Repository. The FDA-approved anticancer drug set is available from the NCI Developmental Therapeutics Program. […] The stock solutions were prepared in dimethyl sulfoxide (DMSO, Sigma-Aldrich, St. Louis, MO, cat. D2650) at 800-fold the tested concentration and stored at -70 degrees C prior to their use. All drugs and investigational agents were tested over a range starting from a high concentration at or near the clinical Cmax and decreasing in half-log increments. If the clinical Cmax for an agent had not been determined, the highest concentration tested was 10 microM.\nCell Culture. All cells were maintained in an incubator at 37 degrees C and 5% CO2 with 95% humidity. The PDC lines were cultured according to standard operating procedures established by the NCI PDMR. All PDCs were thawed and cultured in Matrigel-coated flasks prepared with a working solution of 1X Ham's F-12 nutrient mix, without supplementation (Invitrogen, Waltham, MA, cat. 11765054), 100 U/mL penicillin-streptomycin (Invitrogen, cat. 15140122), and 2.5% Matrigel (Corning Inc., Corning, NY, cat. 354248) for the first three passages. The 362531-283-R-J2-PDC and 782815-120-R-J1-PDC lines were cultured in 6C/Colon 1B media, which includes advanced DMEM/F-12 (Thermo Fisher Scientific, cat. 12634028), 10 mM HEPES (Thermo Fisher Scientific, cat. 15630080), 1X GlutaMAX supplement (Thermo Fisher Scientific, cat. 35050061), 0.1 mg/mL primocin (InvivoGen, San Diego, CA, cat. ant-pm-2), 10% defined fetal bovine serum, heat inactivated (HyClone Laboratories Inc., Logan, UT, cat. SH30070.03HI), 50% L-WRN conditioned media (ATCC, cat. CRL-3276), 1.25 mM N-Acetyl-L-cysteine (Sigma-Aldrich, cat. A9165), 10 mM nicotinamide (Sigma-Aldrich, cat. N0636), 1X B-27 supplement (Thermo Fisher Scientific, cat. 17504044), 1X N-2 supplement (Thermo Fisher Scientific, cat. 17502048), 50 ng/mL human EGF (Thermo Fisher Scientific, cat. PHG0311), and 10 microM Y-27632 dihydrochloride (Tocris Bioscience, cat. 1254). The K12877-001-R-J1-PDC line was cultured in 6I media, which includes all 6C/Colon 1B media plus 10 ng/mL human FGF-10 (PeproTech, cat. 100-26), 1 ng/mL human FGF-2 (PeproTech, cat. 100-18B), 1 µM prostaglandin E2 (Tocris Bioscience, cat. 2296), […] hydrocortisone (Sigma-Aldrich, cat. H4001), and […] bovine insulin (Sigma-Aldrich, cat. I6634). The K86415-001-R-J1-PDC line was cultured in 6D media, which includes all 6C/Colon 1B media components minus the L-WRN conditioned media. The 485176-168-R4-J1-PDC was cultured in PANC media, which includes all 6C/Colon 1B media plus 100 ng/mL human FGF-10 (PeproTech, cat. 100-26), 500 nM SB-431542 (Selleckchem, cat. S1067), and 10 nM gastrin (Tocris Bioscience, cat. 3006). […]", "note": "Where “and” joins values, the source holds several entries; their conditions need not be identical. Identical values can stand only once.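 Further: spheroids exposed to compound for seven days before readout.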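 Wherever IC50 is given: luminescence signal used as a proxy for viable cells.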", "data": [{"smiles": "Nc1ccn(C2OC(CO)C(O)C2(F)F)c(=O)n1", "note": "(stereo unspecified)", "values": [{"measurement": "viability, T/C", "setting": "compound 0.00316 µM", "result": "93.3% [middle of 4 runs]"}, {"measurement": "viability, T/C", "setting": "compound 0.01 µM", "result": "81% [middle of 4 runs]"}, {"measurement": "viability, T/C", "setting": "compound 0.0316 µM", "result": "79.1% [middle of 4 runs]"}, {"measurement": "viability, T/C", "setting": "compound 0.1 µM", "result": "71.7% [middle of 4 runs]"}, {"measurement": "viability, T/C", "setting": "compound 0.316 µM", "result": "69.5% [middle of 4 runs]"}, {"measurement": "viability, T/C", "setting": "compound 1 µM", "result": "61.7% [middle of 4 runs]"}, {"measurement": "IC50", "setting": "curve of compound", "result": "> 1000", "unit": "nM"}]}, {"smiles": "CC(Nc1ccc2c(c1)OCCn1cc(N3C(=O)OCC3C(F)F)nc1-2)C(N)=O", "note": "(stereo unspecified)", "values": [{"measurement": "viability, T/C", "setting": "compound 0.0316 µM", "result": "79.5% [middle of 4 runs]"}, {"measurement": "viability, T/C", "setting": "compound 0.1 µM", "result": "63.3% [middle of 4 runs]"}, {"measurement": "viability, T/C", "setting": "compound 0.316 µM", "result": "52.5% [middle of 4 runs]"}, {"measurement": "viability, T/C", "setting": "compound 1 µM", "result": "43.4% [middle of 4 runs]"}, {"measurement": "viability, T/C", "setting": "compound 3.16 µM", "result": "33.8% (2×) and 32.1% and 37.8%"}, {"measurement": "viability, T/C", "setting": "compound 10 µM", "result": "30.5% [middle of 4 runs]"}, {"measurement": "IC50", "setting": "curve of compound", "result": "386 nM [middle of 4 runs]"}]}, {"smiles": "CC1(C)CCC(Nc2ncc(C(F)(F)F)c(-c3c[nH]c4c(P(C)(C)=O)c(C#N)ccc34)n2)CN1", "note": "(stereo unspecified) + C#Cc1c(F)ccc2cc(O)cc(-c3ncc4c(N5CC6CCC(C5)N6)nc(OCC56CCCN5CC(F)C6)nc4c3F)c12", "values": [{"measurement": "IC50", "setting": "curve of first compound, second compound 0.0316 µM", "result": 4.36, "unit": "nM"}, {"measurement": "IC50", "setting": "curve of first compound, second compound 0.1 µM", "result": "< 0.949", "unit": "nM"}, {"measurement": "IC50", "setting": "curve of first compound, second compound 0.316 µM", "result": "< 0.949", "unit": "nM"}, {"measurement": "IC50", "setting": "curve of first compound, second compound 1 µM", "result": "< 0.949", "unit": "nM"}, {"measurement": "IC50", "setting": "curve of first compound, second compound 3.16 µM", "result": "< 0.949", "unit": "nM"}, {"measurement": "IC50", "setting": "curve of first compound, second compound 10 µM", "result": "< 0.949", "unit": "nM"}, {"measurement": "viability, T/C", "setting": "second compound 0.0316 µM, first compound 0.000949 µM", "result": 61.2, "unit": "%"}, {"measurement": "viability, T/C", "setting": "second compound 0.0316 µM, first compound 0.003 µM", "result": 50.8, "unit": "%"}, {"measurement": "viability, T/C", "setting": "second compound 0.0316 µM, first compound 0.00949 µM", "result": 48.4, "unit": "%"}, {"measurement": "viability, T/C", "setting": "second compound 0.0316 µM, first compound 0.03 µM", "result": 45.5, "unit": "%"}, {"measurement": "viability, T/C", "setting": "second compound 0.0316 µM, first compound 0.0949 µM", "result": 43.3, "unit": "%"}, {"measurement": "viability, T/C", "setting": "second compound 0.0316 µM, first compound 0.3 µM", "result": 46, "unit": "%"}, {"measurement": "viability, T/C", "setting": "second compound 0.1 µM, first compound 0.000949 µM", "result": 54.5, "unit": "%"}, {"measurement": "viability, T/C", "setting": "second compound 0.1 µM, first compound 0.003 µM", "result": 45.1, "unit": "%"}, {"measurement": "viability, T/C", "setting": "second compound 0.1 µM, first compound 0.00949 µM", "result": 42.7, "unit": "%"}, {"measurement": "viability, T/C", "setting": "second compound 0.1 µM, first compound 0.03 µM", "result": 45.3, "unit": "%"}, {"measurement": "viability, T/C", "setting": "second compound 0.1 µM, first compound 0.0949 µM", "result": 45.2, "unit": "%"}, {"measurement": "viability, T/C", "setting": "second compound 0.1 µM, first compound 0.3 µM", "result": 44.4, "unit": "%"}, {"measurement": "viability, T/C", "setting": "second compound 0.316 µM, first compound 0.000949 µM", "result": 40.9, "unit": "%"}, {"measurement": "viability, T/C", "setting": "second compound 0.316 µM, first compound 0.003 µM", "result": 34.8, "unit": "%"}, {"measurement": "viability, T/C", "setting": "second compound 0.316 µM, first compound 0.00949 µM", "result": 36, "unit": "%"}, {"measurement": "viability, T/C", "setting": "second compound 0.316 µM, first compound 0.03 µM", "result": 32.6, "unit": "%"}, {"measurement": "viability, T/C", "setting": "second compound 0.316 µM, first compound 0.0949 µM", "result": 34.1, "unit": "%"}, {"measurement": "viability, T/C", "setting": "second compound 0.316 µM, first compound 0.3 µM", "result": 34.1, "unit": "%"}, {"measurement": "viability, T/C", "setting": "second compound 1 µM, first compound 0.000949 µM", "result": 22.6, "unit": "%"}, {"measurement": "viability, T/C", "setting": "second compound 1 µM, first compound 0.003 µM", "result": 21.8, "unit": "%"}, {"measurement": "viability, T/C", "setting": "second compound 1 µM, first compound 0.00949 µM", "result": 23.2, "unit": "%"}, {"measurement": "viability, T/C", "setting": "second compound 1 µM, first compound 0.03 µM", "result": 21.7, "unit": "%"}, {"measurement": "viability, T/C", "setting": "second compound 1 µM, first compound 0.0949 µM", "result": 23, "unit": "%"}, {"measurement": "viability, T/C", "setting": "second compound 1 µM, first compound 0.3 µM", "result": 25.2, "unit": "%"}, {"measurement": "viability, T/C", "setting": "second compound 3.16 µM, first compound 0.000949 µM", "result": 15.2, "unit": "%"}, {"measurement": "viability, T/C", "setting": "second compound 3.16 µM, first compound 0.003 µM", "result": 12.6, "unit": "%"}, {"measurement": "viability, T/C", "setting": "second compound 3.16 µM, first compound 0.00949 µM", "result": 13.6, "unit": "%"}, {"measurement": "viability, T/C", "setting": "second compound 3.16 µM, first compound 0.03 µM", "result": 15.4, "unit": "%"}, {"measurement": "viability, T/C", "setting": "second compound 3.16 µM, first compound 0.0949 µM", "result": 16, "unit": "%"}, {"measurement": "viability, T/C", "setting": "second compound 3.16 µM, first compound 0.3 µM", "result": 15.3, "unit": "%"}, {"measurement": "viability, T/C", "setting": "second compound 10 µM, first compound 0.000949 µM", "result": 9.1, "unit": "%"}, {"measurement": "viability, T/C", "setting": "second compound 10 µM, first compound 0.003 µM", "result": 8.15, "unit": "%"}, {"measurement": "viability, T/C", "setting": "second compound 10 µM, first compound 0.00949 µM", "result": 8.73, "unit": "%"}, {"measurement": "viability, T/C", "setting": "second compound 10 µM, first compound 0.03 µM", "result": 8.94, "unit": "%"}, {"measurement": "viability, T/C", "setting": "second compound 10 µM, first compound 0.0949 µM", "result": 9.91, "unit": "%"}, {"measurement": "viability, T/C", "setting": "second compound 10 µM, first compound 0.3 µM", "result": 8.26, "unit": "%"}]}]}
